row,SMILES,melting point [°C]
1,CC(C)Nc1cccnc1N1CCN(C(=O)c2ccc(C(=O)N[C@H](CO)c3ccccc3)cc2)CC1,93 to 95
2,CCCCS(=O)(=O)c1ncn(C(=O)N(CCC)CCC)n1,38.5 to 39.5
3,CON(c1ccc([N+](=O)[O-])cc1C#N)S(=O)(=O)c1ccc(C(F)(F)F)cc1,134 to 135
4,CC(C)(C)C(=O)O[C@H]1[C@H](N2CCCC2)c2cc(C#N)ccc2OC1(C)C (relative stereo),109 to 110
5,CP(C)(=O)C(O)C(=O)O (stereo unspecified),206 to 208
6,CN1C[C@H](CN2CCN(C(c3ccccc3)c3ccccc3)CC2)C[C@@H]2c3cccc4[nH]c(Cl)c(c34)C[C@H]21,250
7,CCCC(C)N1CCC2(CC1)CSC1=C(O2)c2ccccc2C(=O)C1=O (stereo unspecified),109 to 111
8,BrCCNC(c1ccccc1)(c1ccccc1)c1ccccc1,108 to 109
9,OCCCCCCc1ccc(OCc2coc(/C=C/c3ccccc3)n2)cc1,94 to 95
10,O=c1ccc(C(c2ccccc2)c2ccccc2)c[nH]1,174 to 176
11,CCCCCCCCCC=C1OC(=O)N(CCCCSc2cccc3nccn23)C1=O,46 to 48
12,Cc1c(N)nc(Cl)nc1Cl,193 to 194
13,CCCN1C(=O)N(c2ccc(N3CCN(c4ccc(O)cc4)CC3)cc2)NC1C (stereo unspecified),253
14,CCn1ncc2c1ncc1c(NC)nc3cc(C)nn3c12,254 to 255
15,CC12CCC3C(CCC4CC=CCC43C)C1CCC2C#N (stereo unspecified),110 to 112
16,C1=CNC2=NCCN2C1,107 to 113
17,O=C1c2ccccc2C(=O)N1CC(=O)N1c2ccccc2N(Cc2ccccc2)C(=O)CC1C=Cc1ccccc1 (stereo unspecified),183 to 184
18,CCc1cn(C2CC(I)C(CO)O2)c(=O)[nH]c1=O (stereo unspecified),162 to 164
19,CCOC(=O)N1CCN(c2c(F)cc([N+](=O)[O-])c(NC3CC3)c2C)CC1,97 to 98
20,CCNc1nc(Cl)c(SC)c(Cl)n1,147

# Now from value to molecule:
row,melting point [°C],SMILES
1,122 to 123,CN(C)C=C(C#N)C(=O)Nc1ccccc1Cl
2,165 to 166,CCCN(C(=O)OCC(Cl)(Cl)Cl)C1CN(C(=O)Nc2ccc(C(F)(F)F)cc2)N=C1c1ccc(OC(F)F)c(C)c1 (stereo unspecified)
3,156,CCOC(=O)N1CCC(=C2c3cc(C)ccc3CCn3ccnc32)CC1
4,215 to 217,CCCC(=O)c1cnc2c(OC)cccc2c1Nc1ccccc1C
5,237 to 239,Cn1cc(C(=O)NCc2ccc(Cl)cc2)c(=O)c2cc(CCl)cc(I)c21
6,250 to 252,O=C(O)CN1CCC(Cc2ccccc2)CC1
7,126 to 127,COC(=O)[C@H](C)N(C(=O)[C@H](CC(C)C)NC(=O)OCc1ccccc1)c1ccc(-c2ccccc2)cc1
8,138 to 140,CSCc1cc2ccccc2n(-c2ccccc2)c1=O
9,163 to 164,COC(=O)C(C(=O)OC)c1ccc([N+](=O)[O-])cc1C(=O)O
10,120 to 121,CCOC(=O)CCCCN1CCc2ccc(NS(=O)(=O)c3ccccc3)cc2C1
11,250 to 254,Cc1[nH]c(=O)[nH]c1C(=O)c1ccccc1
12,51 to 55,Cc1noc(NS(=O)(=O)c2ccsc2C(=O)N(C)c2ccccc2)c1Br
13,155 to 158,Nc1ncnc2sc(CCO)c(-c3ccc(NC(=O)Nc4cccc(C(F)(F)F)c4)cc3)c12
14,157 to 159,Nc1cc(Cl)cc(Cl)c1C(=O)NCc1cccc(Br)c1
15,87 to 89,ON=Cc1csc2ccccc12
16,118 to 119,CCOCc1nc2cnc3cccnc3c2n1Cc1ccccc1
17,73 to 75,COCCNC(=O)C(C)Oc1ccc(Oc2ccc(C(F)(F)F)cc2)cc1 (stereo unspecified)
18,169 to 171,O=C1Nc2ccccc2S(=O)(=O)N1C1CCN(Cc2ccccc2)CC1
19,97 to 99,CCOC(=NC(=O)C1CC1)N1Cc2ccccc2-c2ccccc2C1
20,216 to 217,COc1cc(C(=O)O)ccc1Cc1nn(C)c2ccc(NC(=O)OC3CCCC3)cc12
21,120 to 122,N#CC(C=N)CC(=O)c1ccccc1F (stereo unspecified)

# From a melting point compilation (Tetko et al.; mined from patent text by program, amines drawn as free bases though some values may be those of a salt)
